Measured values reported in ChEMBL document CHEMBL1151285, “Dammarane triterpenes from the hypocotyls and fruits of Ceriops tagal” (J Nat Prod, 2005).
≈ marks a conversion by molar mass, not a printed value.

Columns and labels:
Format in all cases: functional, cell-based
NCI-H187 = assay: Cytotoxicity against human NCI-H187 cells by colorimetric assay
[1] = Cytotoxicity against human BC cells by colorimetric assay
KB = assay: Cytotoxicity against human KB cells by colorimetric assay

| SMILES | IC50 (NCI-H187) [µg/mL] | IC50 [1] [µg/mL] | IC50 (KB) [µg/mL] |
| --- | --- | --- | --- |
| Cc1c2ccncc2c(C)c2c1[nH]c1ccccc12 [ELLIPTECINE] | 0.3 (≈ 1.22 µM) | 0.3 (≈ 1.22 µM) | 0.3 (≈ 1.22 µM) |
| C=C(C)[C@@H]1CC[C@]2(C(=O)O)CC[C@]3(C)[C@H](CC[C@@H]4[C@@]5(C)CC[C@H](OC(=O)/C=C/c6ccc(O)c(OC)c6)C(C)(C)[C@@H]5CC[C@]43C)[C@@H]12 | 1.8 (≈ 2.84 µM) | 3 (≈ 4.74 µM) | 3.8 (≈ 6 µM) |
